Where two headings read alike, the source gives them in different places.
Columns and labels:
GIST-T1 cells [1] = test: Quantitative drug screen, CellTiter-Blue cell viability, GIST-T1; assay type: cell-based; conditions: read-out: IC50 GIST-T1; primary screen, 72 h, 10 μM to […] twofold dilutions; * = IC50 < 0.07 μM and drug showed no dose response
GIST-T1 cells [2] = test: Hit validation cell proliferation, 12-point dose-response, GIST-T1; assay type: cell-based
GIST 882 cells [3] = test: Hit validation cell proliferation, 12-point dose-response, GIST 882; assay type: cell-based
GIST T1-10R cells [4] = test: Hit validation cell proliferation, 12-point dose-response, GIST T1-10R; assay type: cell-based; conditions: for IC50: read-out: IC50 GIST T1-10R, 72 h
[5] = test system: reactive oxygen species (ROS); test: Intracellular ROS activity measurement; assay type: cell-based
phospho-c-KIT (Tyr719) = test: Western blot, phospho-c-KIT in GIST cells; assay type: cell-based
phospho-AKT (Ser473) = test: Western blot, phospho-AKT; assay type: cell-based; conditions: GIST 882 cells, all auranofin treatments, 6 h; site not specified
[6] = test system: phospho-ERK1/2 (Thr202/Tyr204); test: Western blot, phospho-ERK1/2 in GIST cells; assay type: cell-based; conditions: for pERK1/2 level, fold change: GIST T1-10R cells, 6 hours
GIST-T1 cells [7] = test: Early apoptosis assay; assay type: cell-based; conditions: GIST-T1, 1 μM, 24 h, Annexin V
GIST T1-10R cells [8] = test: Early apoptosis assay; assay type: cell-based; conditions: 1 μM, 24 h, Annexin V
GIST 882 cells [9] = test: Early apoptosis assay; assay type: cell-based; conditions: GIST 882, 1 μM, 24 h, Annexin V
Caspase 3/7 = Caspase 3/7 activity assay in GIST cells; assay type: cell-based; conditions: 0.1 and 1 μM, 72 hours
[10] = test system: thioredoxin reductase (TrxR); conditions: for TrxR activity: 6 h
GIST 882 cells [11] = test: Quantitative drug screen, CellTiter-Blue cell viability, GIST 882; assay type: cell-based; conditions: Homo sapiens, GIST882, 72 h, read-out: IC50 GIST 882
GIST T1-10R cells [12] = test: Quantitative drug screen, CellTiter-Blue cell viability, GIST T1-10R; assay type: cell-based; conditions: 72 h, read-out: IC50 GIST TI-10R
ULTR cells = test: Quantitative drug screen, CellTiter-Blue cell viability, ULTR; assay type: cell-based; conditions: 72 h, read-out: IC50 ULTR
Hs 919.T. cells [13] = test: Hit validation cell proliferation, 12-point dose-response, Hs 919.T.; assay type: cell-based; conditions: read-out: IC50 Hs 919.T.
Hs 919.T. cells [14] = test: Drug screen assay in Hs 919.T. cell line at 1 μM; assay type: cell-based; conditions: 72 h, read-out: inhibition against Hs 919.T. cell proliferation
[15] = GIST 882 cells, all auranofin treatments, 6 h

CC(=O)OC[C@H]1O[C@@H]([S-])[C@H](OC(C)=O)[C@@H](OC(C)=O)[C@@H]1OC(C)=O.CCP(CC)CC.[Au+] [Auranofin]
IC50 (GIST-T1 cells [1]): 230 nM
cell viability (GIST-T1 cells [2]; GIST-T1, 1 μM, 72 hour): decrease in cell viability
cell proliferation induced by low-dose treatment, fold (GIST-T1 cells [2]; GIST-T1, low-dose, 72 hour): 1.1–1.2 fold
IC50 (GIST-T1 cells [2]; read-out: IC50 GIST-T1, hit validation, 12-point 20 μM to 1 nM, triplicate, 72 h): 250 ± 150 nM
cell viability (GIST 882 cells [3]; GIST 882, 1 μM, 72 hour): decrease in cell viability
cell viability (GIST T1-10R cells [4]; GIST T1-10R, 1 μM, 72 hour): decrease in cell viability
cell proliferation induced by low-dose treatment, fold (GIST T1-10R cells [4]; GIST T1-10R, low-dose, 72 hour): 1.1–1.2 fold
IC50 (GIST T1-10R cells [4]; hit validation, 12-point 20 μM to 1 nM, triplicate): 20 ± 10 nM
ROS production, fold change ([5]; GIST 882 cells, 1 and 10 μM, 6 h): 1.5 fold
ROS, fold change vs vehicle-treated cells ([5]; GIST 882 cells, across all auranofin treatments): ~ 1.5 fold
ROS formation, fold change ([5]; GIST T1-10R cells, 1 and 10 μM, 6 h): 2.6 fold
ROS ([5]; all three GIST cell lines, 0.01 and 0.1 μM, 6 h): remained relatively stable
ROS production with longer treatment ([5]; all three GIST cell lines, longer treatment): induces higher production of ROS
phosphorylated level of cKIT (phospho-c-KIT (Tyr719); [15]): does not noticeably alter
p-cKT level, fold change (phospho-c-KIT (Tyr719); GIST-T1 cells, 1 or 10 μM, 6 hours): ~ 0.5 fold
phosphorylated level of AKT (phospho-AKT (Ser473)): does not noticeably alter
phosphorylated level of ERK [6, 15]: does not noticeably alter
pERK1/2 level, fold change ([6]; 0.01 μM): ~ 3.0 fold
pERK1/2 level, fold change ([6]; 0.1 μM): ~ 3.6 fold
pERK1/2 level, fold change ([6]; 1 μM): ~ 2.7 fold
pERK1/2 level, fold change ([6]; 010 μM): ~ 2.4 fold
fraction of early apoptotic cells, fold increase (GIST-T1 cells [7]): ~ 4 fold
fraction of early apoptotic cells, fold increase (GIST T1-10R cells [8]): ~ 2.8 fold
fraction of early apoptotic cells, fold increase (GIST 882 cells [9]): ~ 2.3 fold
Caspase 3/7 activity (Caspase 3/7): able to increase
TrxR activity ([10]; GIST T1-10R cells, 0.01 and 0.1 μM): significant decrease
TrxR activity ([10]; all three GIST cell lines, 1.0 and 10 μM): dramatically reduces
TrxR enzymatic activity ([10]; exposure up to 24 hours at 1 μM): inhibited

CC(=O)[C@]1(O)Cc2c(O)c3c(c(O)c2[C@@H](O[C@H]2C[C@H](N)[C@H](O)[C@H](C)O2)C1)C(=O)c1ccccc1C3=O [Idarubicin]
IC50 (GIST 882 cells [11]): 50 nM
IC50 (GIST T1-10R cells [12]): 690 nM
IC50 (ULTR cells): < 70 nM
IC50 (GIST 882 cells [3]; Homo sapiens, GIST882, 72 h, read-out: IC50 GIST 882): 130 ± 40 nM
IC50 (GIST T1-10R cells [4]): 50 ± 10 nM
IC50 (Hs 919.T. cells [13]): 70 ± 3 nM
inhibition at 1 µM (Hs 919.T. cells [14]): > 50%

— paper PMC3707936 (Molecular cancer therapeutics, 2013)
